Assay results reported in patent US8658226B2, “Agent having anti-Helicobacter pylori activity” (Japan Royal Jelly Co., Ltd., priority 2008, dated 2014).
In brackets after ≈: the same amount, converted by molar mass.

Test system: Helicobacter pylori
Experiment: Measurement of anti-Helicobacter pylori activity by the paper disk method
Format: cell-based
Protocol: Measurement of anti-Helicobacter pylori activity was carried out by the paper disk method using Helicobacter pylori agar culture medium (Pore […] Chemical). After coating Helicobacter pylori over the entire surface of this medium, a thick circular piece of filter paper (Advantec) having a diameter of 8 mm impermeated with 60 μl of extract was placed on the medium followed by culturing in the presence of 10% carbon dioxide gas. After culturing for 3 to 4 days, the size of the zone of inhibition of Helicobacter pylori growth formed around the filter paper was observed. A piece of filter paper impermeated with chloramphenicol (CM, 100 μg/ml) was also placed on the medium as a positive control, while a piece of filter paper impermeated with PBS was placed on the medium as a negative control.

- MIC (Helicobacter pylori, assumed from paper disk method, read-out: minimum inhibitory concentration (MIC)): ~5 µg/mL (≈ 15.5 µM)
Compound: O=C(N[C@H](CO)[C@H](O)c1ccc([N+](=O)[O-])cc1)C(Cl)Cl [chloramphenicol]
- antibacterial activity of chloramphenicol (at a concentration of 5 μg/ml): essentially no longer observed
